From ChEMBL document CHEMBL1151566, “Cephem sulfones as inactivators of human leukocyte elastase. II. Keto-enol tautomerish in cephem-4-ketones” (Bioorg Med Chem Lett, 1992)

Legend:
[1] = Chemical half-life was evaluated at 37 degree C expressed as stability towards hydrolysis; assay type: physicochemical
[2] = pKa value was determined; assay type: physicochemical
[3] = molecular target: T1, Neutrophil elastase (Homo sapiens) (UniProt P08246); experiment: Inhibition of human leukocyte elastase II (HLE-II) as second order rate constant
T1 sequence (whole entry): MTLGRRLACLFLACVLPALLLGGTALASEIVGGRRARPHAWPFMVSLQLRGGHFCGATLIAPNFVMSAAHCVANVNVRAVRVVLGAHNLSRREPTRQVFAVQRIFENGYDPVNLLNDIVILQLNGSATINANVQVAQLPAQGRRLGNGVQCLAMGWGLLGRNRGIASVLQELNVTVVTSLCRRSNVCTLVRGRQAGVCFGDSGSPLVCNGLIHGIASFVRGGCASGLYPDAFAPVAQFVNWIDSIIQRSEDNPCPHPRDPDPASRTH

Structure (SMILES)	half-life [1]	pKa [2]	k on [3]
CO[C@H]1C(=O)N2C(C(=O)C(C)(C)C)=C(CSc3nnnn3C)C(Sc3nnnn3C)S(=O)(=O)[C@H]12 (some centres not stated)	24 h	6	
CO[C@H]1C(=O)N2C(C(=O)C(C)(C)C)=C(CSc3nnnn3C)CS(=O)(=O)[C@H]12	24 h	11.6	
CO[C@H]1C(=O)N2C(C(=O)C(C)(C)C)=C(C)C(Sc3nnnn3C)S(=O)(=O)[C@H]12 (some centres not stated)	14.8 h	7.9	100000 M⁻¹ s⁻¹
CO[C@H]1C(=O)N2C(C(=O)C(C)(C)C)=C(CSc3nnc(C)s3)C(Sc3nnc(C)s3)S(=O)(=O)[C@H]12 (some centres not stated)	46 h	5.8	21000 M⁻¹ s⁻¹
CO[C@H]1C(=O)N2C(C(=O)C(C)(C)C)=C(C)C(Sc3nnc(C)s3)S(=O)(=O)[C@H]12 (some centres not stated)	26 h	7.5	42000 M⁻¹ s⁻¹
CO[C@H]1C(=O)N2C(C(=O)C(C)(C)C)=C(CSc3nnc(C)s3)CS(=O)(=O)[C@H]12	37 h	11.9	32000 M⁻¹ s⁻¹
CO[C@H]1C(=O)N2C(C(=O)C(C)(C)C)=C(C)CS(=O)(=O)[C@H]12	130 h		

Second part, the compound after the results:

half-life [1]	pKa [2]	k on [3]	Structure (SMILES)
8.6 h	8.4		CO[C@H]1C(=O)N2C(C(=O)c3ccccc3)=C(CSc3nnnn3C)CS(=O)(=O)[C@H]12
16.3 h	8.9	54000 M⁻¹ s⁻¹	CO[C@H]1C(=O)N2C(C(=O)C(C)(C)C)=C(C)C(Sc3nc(=O)c(=O)[nH]n3C)S(=O)(=O)[C@H]12 (some centres not stated)
33 h	9.6		CO[C@H]1C(=O)N2C(C(=O)c3ccccc3)=C(C)CS(=O)(=O)[C@H]12
850 h	3.5		CO[C@H]1C(=O)N2C(C(=O)c3ccccc3)=C(CSc3nnnn3C)C(Sc3nnnn3C)S(=O)(=O)[C@H]12 (some centres not stated)
120 h	4.8	200 M⁻¹ s⁻¹	CO[C@H]1C(=O)N2C(C(=O)c3ccccc3)=C(C)C(Sc3nnnn3C)S(=O)(=O)[C@H]12 (some centres not stated)
86 h	5.7	930 M⁻¹ s⁻¹	CO[C@H]1C(=O)N2C(C(=O)c3ccccc3)=C(C)C(Sc3nc(=O)c(=O)[nH]n3C)S(=O)(=O)[C@H]12 (some centres not stated)
